“And” between values parts separate entries of the source, which are not always exact repeats. Equal entries are not always repeated. Where two headings read alike, the source gives them in different places.
Tests used:
[1] = assay type: in vivo, human; conditions: for plasma ammonia: male
Experimental: (§1) Plasma ammonia levels were obtained at Stanford University Medical Center, which followed a strict protocol of immediately placing the blood sample on ice, and then analyzing the sample within 15 minutes. Samples not placed on ice, or analyzed after a longer delay yield artificially elevated plasma ammonia levels due to release of ammonia from erythrocytes and deamination of plasma amino acids (52, 53).
A person with gastric adenocarcinoma underwent subtotal gastrectomy and Roux-en-Y gastrojejunostomy, followed by two cycles of adjuvant carboplatin and capecitabine (1000 mg/m^2 twice a day for 14 days), and then 50 Gy of radiation therapy to the tumor bed with concurrent capecitabine (1000 mg/m^2 twice a day). During each course of capecitabine, they experienced extreme lethargy, without mucositis, diarrhea or hand-foot syndrome.
On the third cycle of carboplatin and capecitabine, self-administered folate 1 mg/d hoping to prevent lethargy. From days 5 to 14 of capecitabine, they became increasingly confused, and then combative and ataxic. Two days after the last capecitabine dose, they were taken to local emergency room for delirium and found to have a normal CT scan of the brain.
After discontinuation of lactulose on discharge from the hospital, plasma ammonia gradually rose and then returned to normal over two months (FIG. 2A). Four months after discharge, mild liver steatosis was noted on CT scan for the first time.
A person with newly diagnosed squamous cell carcinoma of the left tonsil and base of tongue began treatment with docetaxel and cisplatin, followed by a planned 5-day infusion of 5-FU (750 mg/m^2). Past medical history included manic depression treated with valproic acid.
(§2) After 1 day, the infusion 5-FU was held because of diarrhea from C. difficile, which was treated with metronidazole. Two days later, the infusion was resumed. On the third infusion day, the patient developed slurred speech and gait ataxia. On the fifth infusion day, they became delirious and then comatose. MRI and CT scan of the brain, and lumbar puncture were normal. Valproic acid trough levels ([…]) were within therapeutic range, which is sufficient to inhibit N-acetylglutamate synthase (FIG. 1A) and disrupt the urea cycle (11, 12). Despite multiple episodes of diarrhea and a delay of 10 hours following discontinuation of infusion 5-FU, plasma ammonia was elevated at 37 μmol/L. The next day, the patient was alert, and plasma ammonia was 16 μmol/L. The tumor had decreased markedly in size, no longer preventing them from turning their head.
A person with a well-differentiated neuroendocrine tumor of unknown primary began treatment with capecitabine (days 1-14) and temozolomide (days 10-14) after progression of massive liver metastases. […]

[2] = high dose continuous infusion 5-FU; sixteen of 280 patients; cited from earlier work
[3] = Valproic acid trough levels in Patient 2; assay type: in vivo, human; conditions: within therapeutic range
Experimental: as §2

[4] = Prospective measurement of plasma ammonia levels in patients treated with capecitabine; assay type: in vivo, human
Experimental: Prospective Measurement of Plasma Ammonia Levels in Patients Treated with Capecitabine
Patients donated whole blood for analysis after providing consent according to a protocol approved by the Stanford University Administrative Panel for the Protection of Human Subjects.
as §1, with “53). […]” for “53).”
Mid-cycle levels were measured after patients had taken capecitabine for 7 to 14 days. […]
To prospectively measure plasma ammonia after capecitabine, we prospectively studied 29 cancer patients (Table 3). […] To estimate baseline plasma ammonia levels, we measured 2 or more levels before the first capecitabine dose or at least 7 days after the previous capecitabine dose.
We monitored changes in cognitive function between baseline and mid-cycle time points with two instruments: a telephone-administered mini-mental status examination, and a patient self-administered questionnaire. […]

OC[C@H]1O[C@@H](O[C@@H]2[C@@H](CO)OC(O)(CO)[C@H]2O)[C@H](O)[C@@H](O)[C@H]1O (mixture of isomers) [lactulose]
plasma ammonia with lactulose treatment ([1]; Patient 1 (index case), declined from 158 μmol/L, symptoms resolved): 29 µmol/L

O=c1[nH]cc(F)c(=O)[nH]1 [5-FU, 5-fluorouracil]
patients who suffered encephalopathy with hyperammonemia [2]: 5.7%
plasma ammonia ([1]; human, in vivo): 16 µmol/L

CCCC(CCC)C(=O)O [Valproic acid, valproic acid]
Valproic acid trough levels [3]: 45 µg/mL and 68 µg/mL

CCCCCOC(=O)Nc1nc(=O)n(C2OC(C)C(O)C2O)cc1F (centres unmarked) [capecitabine, pentyl[1-(3,4-dihydroxy-5-methyltetrahydrofuran-2-yl)-5-fluoro-2-oxo-1H-pyrimidin-4-yl]carbamate]
plasma ammonia level ([1]; female, human, in vivo, 7 days after the last capecitabine dose): 158 µmol/L
plasma ammonia ([1]; human, in vivo, 7 days after discontinuing capecitabine): 54 µmol/L
patients with mid-cycle plasma ammonia levels increased above baseline levels ([4]; 29 cancer patients, mid-cycle after 7 to 14 days of capecitabine, by more than 3 or 4 standard deviations (p<0.01 or p<0.001)): 5 of the 29
patients with clinically significant symptoms among those with increased mid-cycle ammonia levels ([4]; of the 5 patients with increased mid-cycle ammonia, cognitive dysfunction, malaise, fatigue, unsteady gait): 2 of the 5

— patent US20160002733A1, “ASSESSING RISK FOR ENCEPHALOPATHY INDUCED BY 5-FLUOROURACIL OR CAPECITABINE” (THE BOARD OF TRUSTEES OF THE LELAND STANFORD JUNIOR …, priority 2013, published 2016)
